Reference: US8637684B2, “Tautomycetin and tautomycetin analog biosynthesis” (Wisconsin Alumni Research Foundation, priority 2010, dated 2014)
Where two headings read alike, the source gives them in different places.

How the values were obtained:
SHP2 [1] = molecular target: T1, SHP2 (Homo sapiens, UniProt Q06124); test: PTP activity assay with pNPP as substrate: SHP2; format: biochemical
T1 construct: The expression and purification of the SHP2 catalytic domain (residues 262-528) were described previously; made in house
T1 sequence (Q06124 262-528): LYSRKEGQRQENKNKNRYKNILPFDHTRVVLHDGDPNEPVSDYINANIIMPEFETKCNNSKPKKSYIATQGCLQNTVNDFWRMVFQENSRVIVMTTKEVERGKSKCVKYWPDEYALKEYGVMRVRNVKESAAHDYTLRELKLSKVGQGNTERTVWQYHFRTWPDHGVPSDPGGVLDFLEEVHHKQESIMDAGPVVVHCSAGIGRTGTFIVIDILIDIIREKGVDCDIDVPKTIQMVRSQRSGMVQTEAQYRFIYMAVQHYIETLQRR
Protocol: (§1) The PTP activity was assayed using pNPP as a substrate at 25° C. in 50 mM 3,3-dimethylglutarate buffer, pH 7.0, containing 1 mM EDTA with an ionic strength of 0.15 M adjusted by NaCl. TTM, TTN and the engineered analogs were analyzed for inhibition of a panel of PTPs at 10 μM compound concentration. For each enzyme screened, test compounds were diluted to 20 μM in 100 μL and combined with 50 μL pNPP at a concentration of 4×Km. The reaction was initiated by the addition of 50 μL of 4× concentrated enzyme and pNPP was allowed to convert to the product p-nitrophenol. The reaction was quenched by the addition of 50 μL of 5N NaOH. Nonenzymatic hydrolysis of pNPP was corrected by measuring the control without the addition of enzyme. Production of p-nitrophenol was monitored by a Spectra MAX385 microplate spectrophotometer (Molecular Devices) at 405 nm using a molar extinction coefficient of 18,000 M^−1 cm^−1. IC50 values were calculated by fitting the absorbance at 405 nm versus inhibitor concentration to the following equation: AI/A0=IC50/(IC50+[I]) where AI is the absorbance at 405 nm of the sample in the presence of inhibitor; Ao is the absorbance at 405 nm in the absence of inhibitor; and [I] is the concentration of the inhibitor.
The effect of the compounds on PTP-catalyzed hydrolysis of p-nitrophenyl phosphate (pNPP) was assessed at pH 7 and 25° C. Members of the PTP superfamily that were included in the screen included the cytosolic PTPs, PTP1B, SHP1, SHP2, Lyp, HePTP, Meg2, and FAP1, the receptor-like PTPs, CD45, LAR, and PTPα, the dual specificity phosphatases VHR, VHX, and Cdc14, and the low molecular weight PTP.
Therefore, all of the IC50 values reported in this study directly reflect the true affinity of the compound for the enzymes tested.

HePTP = molecular target: T2, HePTP (Homo sapiens, UniProt P35236); test: PTP activity assay with pNPP as substrate: HePTP; format: biochemical; conditions: pNPP as substrate at Km, pH 7.0, 25° C., I = 0.15 M
T2 sequence (P35236 1-360): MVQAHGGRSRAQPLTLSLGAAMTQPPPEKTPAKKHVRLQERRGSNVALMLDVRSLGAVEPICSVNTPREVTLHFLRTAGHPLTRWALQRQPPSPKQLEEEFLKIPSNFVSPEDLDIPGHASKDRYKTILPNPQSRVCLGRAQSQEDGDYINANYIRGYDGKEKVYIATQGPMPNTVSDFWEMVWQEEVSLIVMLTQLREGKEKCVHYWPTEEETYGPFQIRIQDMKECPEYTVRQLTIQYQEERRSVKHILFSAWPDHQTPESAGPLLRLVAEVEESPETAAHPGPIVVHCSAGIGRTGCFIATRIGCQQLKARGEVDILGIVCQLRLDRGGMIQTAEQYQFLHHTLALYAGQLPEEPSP
Protocol: as §1

PP1 = conditions: cited from earlier work
[2] = tested on: human primary T-cell tyrosine phosphorylation; conditions: Shim et al., 2002, cited from earlier work
VHR = VHR (Homo sapiens, UniProt P51452); test: PTP activity assay with pNPP as substrate: VHR; format: biochemical; conditions: pNPP as substrate at Km, pH 7.0, 25° C., I = 0.15 M
Protocol: as §1

PTP1B = molecular target: T3, PTP1B (Homo sapiens, UniProt P18031); test: PTP activity assay with pNPP as substrate: PTP1B; format: biochemical; conditions: pNPP as substrate at Km, pH 7.0, 25° C., I = 0.15 M
T3 sequence (P18031 1-435): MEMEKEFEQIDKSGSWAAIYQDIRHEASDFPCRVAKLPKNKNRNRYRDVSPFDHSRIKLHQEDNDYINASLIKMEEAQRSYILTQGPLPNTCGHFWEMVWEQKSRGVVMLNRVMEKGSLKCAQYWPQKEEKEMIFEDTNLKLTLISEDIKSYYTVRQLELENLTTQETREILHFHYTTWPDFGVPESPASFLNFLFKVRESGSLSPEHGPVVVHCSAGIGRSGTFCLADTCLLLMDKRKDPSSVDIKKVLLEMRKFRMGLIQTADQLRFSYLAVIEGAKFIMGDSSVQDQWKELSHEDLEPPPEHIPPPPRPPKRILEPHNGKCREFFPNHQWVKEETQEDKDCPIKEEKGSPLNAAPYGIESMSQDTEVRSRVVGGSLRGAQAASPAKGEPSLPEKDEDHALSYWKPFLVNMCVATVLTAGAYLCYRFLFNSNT
Protocol: as §1

SHP2 [3] = molecular target: T1, SHP2; test: Ki measurement, steady-state kinetic analysis of SHP2-catalyzed pNPP hydrolysis; format: biochemical
Protocol: The SHP2-catalyzed hydrolysis of pNPP in the presence of TTN or TTN D-1 was assayed at 25° C. and in the assay buffer described above. The mode of inhibition and K, value were determined in the following manner. At various fixed concentrations of the inhibitor (0-3 Ki), the initial rate at a series of pNPP concentrations was measured by following the production of p-nitrophenol as describe above, ranging from 0.2- to 5-fold the apparent Km values. The data were fitted to appropriate equations using SigmaPlot-Enzyme Kinetics to obtain the inhibition constant and to assess the mode of inhibition.
To further characterize SHP2 inhibition by the TTN and TTN D-1, the IC50 values for TTN and TTN D-1 were measured at a pNPP concentration fixed at the experimentally determined Km for each PTP. […] To establish the mechanism of SHP2 inhibition by TTN and TTN D-1, the inhibition constants and mode of inhibition were determined by steady-state kinetic analysis of the SHP2-catalyzed reaction.

PTPα = PTPα (Homo sapiens, UniProt P18433); test: PTP activity assay with pNPP as substrate: PTPα; format: biochemical; conditions: pNPP as substrate at Km, pH 7.0, 25° C., I = 0.15 M
Protocol: as §1

[4] = literature (Luo et al., 2007; Mitsuhashi et al., 2003, 2008); cited from earlier work
Cdc14A = molecular target: T4, Cdc14A (Homo sapiens, UniProt Q9UNH5); test: PTP activity assay with pNPP as substrate: Cdc14A; format: biochemical; conditions: pNPP as substrate at Km, pH 7.0, 25° C., I = 0.15 M
T4 sequence (Q9UNH5 1-594): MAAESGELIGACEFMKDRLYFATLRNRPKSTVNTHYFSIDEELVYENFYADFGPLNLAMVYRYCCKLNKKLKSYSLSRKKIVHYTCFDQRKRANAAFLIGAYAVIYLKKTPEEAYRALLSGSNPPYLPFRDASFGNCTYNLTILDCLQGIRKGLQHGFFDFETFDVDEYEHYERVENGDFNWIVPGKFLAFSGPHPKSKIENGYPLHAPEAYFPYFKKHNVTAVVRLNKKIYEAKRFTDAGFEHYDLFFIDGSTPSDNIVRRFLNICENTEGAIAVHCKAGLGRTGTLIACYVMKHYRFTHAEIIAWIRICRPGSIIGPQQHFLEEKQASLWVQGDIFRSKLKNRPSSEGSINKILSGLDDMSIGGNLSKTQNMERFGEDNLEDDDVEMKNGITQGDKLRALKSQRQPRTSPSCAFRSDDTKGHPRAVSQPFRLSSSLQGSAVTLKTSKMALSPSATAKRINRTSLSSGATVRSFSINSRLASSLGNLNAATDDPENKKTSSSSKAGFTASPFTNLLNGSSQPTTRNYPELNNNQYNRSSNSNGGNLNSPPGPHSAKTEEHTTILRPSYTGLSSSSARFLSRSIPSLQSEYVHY
Protocol: as §1

Sequence of PTPα (P18433 20-802): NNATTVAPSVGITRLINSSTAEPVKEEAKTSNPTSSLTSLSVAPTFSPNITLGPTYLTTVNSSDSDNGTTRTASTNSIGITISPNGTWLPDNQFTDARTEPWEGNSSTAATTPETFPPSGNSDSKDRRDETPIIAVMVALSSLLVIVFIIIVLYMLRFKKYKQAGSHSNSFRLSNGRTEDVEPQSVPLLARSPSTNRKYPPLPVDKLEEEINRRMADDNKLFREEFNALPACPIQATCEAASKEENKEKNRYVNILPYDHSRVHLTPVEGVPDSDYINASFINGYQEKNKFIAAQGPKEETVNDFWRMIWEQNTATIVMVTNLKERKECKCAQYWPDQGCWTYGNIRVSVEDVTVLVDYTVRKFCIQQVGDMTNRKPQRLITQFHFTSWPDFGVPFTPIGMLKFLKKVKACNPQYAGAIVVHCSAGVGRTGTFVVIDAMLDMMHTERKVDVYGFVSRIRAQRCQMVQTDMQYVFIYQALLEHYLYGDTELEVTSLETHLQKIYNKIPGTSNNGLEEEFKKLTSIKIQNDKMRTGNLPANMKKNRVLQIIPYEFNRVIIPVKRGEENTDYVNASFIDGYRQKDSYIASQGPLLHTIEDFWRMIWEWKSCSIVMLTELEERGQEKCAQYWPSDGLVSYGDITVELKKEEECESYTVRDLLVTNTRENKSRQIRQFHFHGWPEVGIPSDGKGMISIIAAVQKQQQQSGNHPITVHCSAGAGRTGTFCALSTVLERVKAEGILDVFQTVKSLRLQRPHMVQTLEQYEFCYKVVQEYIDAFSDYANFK
Sequence of VHR (P51452 whole entry, species assumed): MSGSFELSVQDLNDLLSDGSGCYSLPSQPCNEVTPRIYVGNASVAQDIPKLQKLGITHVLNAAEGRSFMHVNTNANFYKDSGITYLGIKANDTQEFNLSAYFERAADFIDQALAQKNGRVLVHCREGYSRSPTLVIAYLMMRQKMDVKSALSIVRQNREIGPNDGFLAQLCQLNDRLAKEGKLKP

## tautomycetin [TTN]
SHP2 [1]; from IC50 values
  preference for SHP2 over all PTPs examined: ≥ 5 fold
SHP2 [1]; pNPP as substrate at Km, pH 7.0, 25° C., I = 0.15 M
  IC50: 2900 nM
HePTP
  IC50: > 50 µM
PP1; literature (Mitsuhashi et al., 2001)
  preferential inhibition of PP1 relative to PP2A: about 40 fold
PP1; literature values
  IC50: 1.6 nM
[2]
  concentration inhibiting human primary T-cell tyrosine phosphorylation: 1 µg/mL
[2]; same value converted
  concentration inhibiting human primary T-cell tyrosine phosphorylation: 1.65 µM
VHR
  IC50: > 50 µM
PTP1B
  IC50: 40 µM
SHP2 [3]; Lineweaver-Burk, FIG. 2
  mode of inhibition of the SHP2-catalyzed reaction: competitive inhibitors
SHP2 [3]; pNPP, 25° C., pH 7.0
  Ki: 1600 ± 100 nM
PTPα
  IC50: > 50 µM
[4]
  concentrations required to exert a cellular effect: 1 to 5 µM
Cdc14A
  IC50: > 50 µM
